Data from patent US10047086B2, “Imidazopyridines and imidazopyrazines as LSD1 inhibitors” (Incyte Corporation, priority 2014, dated 2018).

What follows are compounds tested against LSD-1 enzyme (Homo sapiens (Human), UniProt O60341) (assay: LANCE LSD1/KDM1A demethylase assay (LSD1 histone demethylase biochemical assay)). Details: 1 nM LSD-1 enzyme, 1 hour preincubation at 25° C., 0.4 μM Biotin-labeled Histone H3 peptide substrate.
Experimental: LSD1 Histone Demethylase Biochemical Assay
LANCE LSD1/KDM1A demethylase assay-10 μL of 1 nM LSD-1 enzyme (ENZO BML-SE544-0050) in the assay buffer (50 mM Tris, pH 7.5, 0.01% Tween-20, 25 mM NaCl, 5 mM DTT) were preincubated for 1 hour at 25° C. with 0.8 μL compound/DMSO dotted in black 384 well polystyrene plates. […] Reactions were stopped by addition of 10 μL 1× LANCE Detection Buffer (PerkinElmer CR97-100) supplemented with 1.5 nM Eu-anti-unmodified H3K4 Antibody (PerkinElmer TRF0404), and 225 nM LANCE Ultra Streptavidin (PerkinElmer TRF102) along with 0.9 mM Tranylcypromine-HCl (Millipore 616431). After stopping the reactions plates were incubated for 30 minutes and read on a PHERAstar FS plate reader (BMG Labtech).

Structure (SMILES)	IC50 [nM]
COc1ccc(-c2c(-c3ccc(C#N)cc3)cc(OC[C@@H]3CCCN(C)C3)c3cncn23)cn1 [Example 72, 4-(5-(6-methoxypyridin-3-yl)-8-{[(3R)-1-methylpiperidin-3-yl]methoxy}imidazo[1,5-a]pyridin-6-yl)benzonitrile]	≤ 50
CN(C)C1CCN(c2nc(-c3ccc(C#N)cc3)c(-c3ccc4ncccc4c3)n3cncc23)CC1 [Example 145, 4-{8-[4-(dimethylamino)piperidin-1-yl]-5-quinolin-6-ylimidazo[1,5-a]pyrazin-6-yl}benzonitrile]	≤ 50
Cc1cc(-c2c(-c3ccc(C#N)cc3)nc(N3CCC(N(C)C)CC3)c3cncn23)cnc1C [Example 89, 4-[8-[4-(dimethylamino)piperidin-1-yl]-5-(5,6-dimethylpyridin-3-yl)imidazo[1,5-a]pyrazin-6-yl]benzonitrile]	≤ 50
Cc1ccc(-c2c(-c3ccc(C#N)cc3)cc(OC[C@@H]3CCN(C)C3)c3cncn23)cc1 [Example 20, 4-(5-(4-methylphenyl)-8-{[(3R)-1-methylpyrrolidin-3-yl]methoxy}imidazo[1,5-a]pyridin-6-yl)benzonitrile]	≤ 50
Cc1cc(-c2c(-c3ccc(C#N)cc3)cc(OC[C@@H]3CCCN(C)C3)c3cncn23)cnc1C [Example 81, 4-(5-(5,6-dimethylpyridin-3-yl)-8-{[(3R)-1-methylpiperidin-3-yl]methoxy}imidazo[1,5-a]pyridin-6-yl)benzonitrile]	≤ 50
N#Cc1ccc(-c2cc(OC[C@@H]3CCNC3)c3cncn3c2-c2ccc3c(c2)OCCO3)cc1 [Example 16, 4-{5-(2,3-dihydro-1,4-benzodioxin-6-yl)-8-[(3R)-pyrrolidin-3-ylmethoxy]imidazo[1,5-a]pyridin-6-yl}benzonitrile]	≤ 50
CN(C)C1CCN(c2nc(-c3ccc(C#N)cc3)c(-c3ccc4c(c3)nc(C(F)F)n4C)n3cncc23)CC1 [Example 143, 4-{5-[2-(difluoromethyl)-1-methyl-1H-benzimidazol-5-yl]-8-[4-(dimethylamino)piperidin-1-yl]imidazo[1,5-a]pyrazin-6-yl}benzonitrile]	≤ 50
COc1ccc(-c2c(-c3ccc(C#N)cc3)nc(N3CCC(N(C)C)CC3)c3cncn23)cn1 [Example 53, 4-[8-[4-(dimethylamino)piperidin-1-yl]-5-(6-methoxypyridin-3-yl)imidazo[1,5-a]pyrazin-6-yl]benzonitrile]	≤ 50
CN(C)C1CCN(c2nc(-c3ccc(C#N)cc3)c(-c3ccc4c(c3F)n(C)c(=O)n4C)n3cncc23)CC1 [Example 109, 4-[8-[4-(dimethylamino)piperidin-1-yl]-5-(4-fluoro-1,3-dimethyl-2-oxo-2,3-dihydro-1H-benzimidazol-5-yl)imidazo[1,5-a]pyrazin-6-yl]benzonitrile]	≤ 50
Cn1ncc2cc(-c3c(-c4ccc(C#N)cc4)nc(OC[C@@H]4CCCN(CCO)C4)c4cncn34)cnc21 [Example 37, 4-[8-{[(3R)-1-(2-hydroxyethyl)piperidin-3-yl]methoxy}-5-(1-methyl-1H-1-pyrazolo[3,4-b]pyridin-5-yl)imidazo[1,5-a]pyrazin-6-yl]benzonitrile]	≤ 50
CN1CCC[C@@H](COc2cc(-c3ccc(C#N)cc3)c(-c3ccc4nccnc4c3)n3cncc23)C1 [Example 56, (R)-4-(8-((1-methylpiperidin-3-yl)methoxy)-5-(quinoxalin-6-yl)imidazo[1,5-a]pyridin-6-yl)benzonitrile]	≤ 50
CCC1CC=C(c2c(-c3ccc(C#N)cc3)cc(OC[C@@H]3CCNC3)c3cncn23)CC1 (stereo partly drawn) [Example 9, 4-{5-(4-ethylcyclohex-1-en-1-yl)-8-[(3R)-pyrrolidin-3-ylmethoxy]imidazol[1,5-a]pyridin-6-yl}benzonitrile]	≤ 50
COCCN1CCC[C@@H](COc2cc(-c3ccc(C#N)cc3)c(-c3cnc4c(c3)CCCO4)n3cncc23)C1 [Example 122, (R)-4-(5-(3,4-dihydro-2H-pyrano[2,3-b]pyridin-6-yl)-8-((1-(2-methoxyethyl)piperidin-3-yl)methoxy)imidazo[1,5-a]pyridin-6-yl)benzonitrile]	≤ 50
Cc1ccc(-c2c(-c3ccc(C#N)c(F)c3)cc(OC[C@@H]3CCNC3)c3cncn23)cc1 [Example 4, 2-fluoro-4-{5-(4-methylphenyl)-8-[(3R)-pyrrolidin-3-ylmethoxy]imidazo[1,5-a]pyridin-6-yl}benzonitrile]	≤ 50
CN1CCC[C@@H](COc2cc(-c3ccc(C#N)cc3)c(-c3cnn(C4CCC4)c3)n3cncc23)C1 [Example 134, 4-(5-(1-cyclobutyl-1H-pyrazol-4-yl)-8-{[(3R)-1-methylpiperidin-3-yl]methoxy}imidazo[1,5-a]pyridin-6-yl)benzonitrile]	≤ 50
N#Cc1ccc(-c2cc(OC[C@@H]3CCNC3)c3cncn3c2-c2ccc(CCN3CCOCC3)cc2)cc1 [Example 18, 4-{5-[4-(2-morpholin-4-ylethyl)phenyl]-8-[(3R)-pyrrolidin-3-ylmethoxy]imidazo[1,5-a]pyridin-6-yl}benzonitrile]	≤ 50
Cc1ccc(-c2c(-c3ccc(C#N)cc3)nc(N3CCC(N(C)C)CC3)c3cncn23)c(CO)c1 [Example 92, 4-{8-[4-(dimethylamino)piperidin-1-yl]-5-[2-(hydroxymethyl)-4-methylphenyl]imidazo[1,5-a]pyrazin-6-yl}benzonitrile]	≤ 50
CN(C)C1CCN(c2nc(-c3ccc(C#N)cc3)c(-c3cnc4ccccc4c3)n3cncc23)CC1 [Example 144, 4-{8-[4-(dimethylamino)piperidin-1-yl]-5-quinolin-3-ylimidazo[1,5-a]pyrazin-6-yl}benzonitrile]	≤ 50
CN1CCC[C@@H](COc2cc(-c3ccc(C#N)cc3)c(-c3cnc4c(c3)OCCN4C)n3cncc23)C1 [Example 116, (R)-4-(5-(4-methyl-3,4-dihydro-2H-pyrido[3,2-b][1,4]oxazin-7-yl)-8-((1-methylpiperidin-3-yl)methoxy)imidazo[1,5-a]pyridin-6-yl)benzonitrile]	≤ 50
COC(=O)N(C)Cc1ccc(-c2c(-c3ccc(C#N)cc3)nc(OC[C@@H]3CCCN(C)C3)c3cncn23)cc1F [Example 48, methyl [4-(6-(4-cyanophenyl)-8-{[(3R)-1-methylpiperidin-3-yl]methoxy}imidazo[1,5-a]pyrazin-5-yl)-2-fluorobenzyl]methylcarbamate]	≤ 50
Cn1ncc2cc(-c3c(-c4ccc(C#N)cc4)nc(OC[C@@H]4CCCN(CCC#N)C4)c4cncn34)cnc21 [Example 38, 4-[8-{[(3R)-1-(2-cyanoethyl)piperidin-3-yl]methoxy}-5-(1-methyl-1H-1-pyrazolo[3,4-b]pyridin-5-yl)imidazo[1,5-a]pyrazin-6-yl]benzonitrile]	≤ 50
CN1CCOc2cc(-c3c(-c4ccc(C#N)cc4)cc(OC[C@@H]4CCNC4)c4cncn34)ccc21 [Example 14, 4-{5-(4-methyl-3,4-dihydro-2H-1,4-benzoxazin-7-yl)-8-[(3R)-pyrrolidin-3-ylmethoxy]imidazo[1,5-a]pyridin-6-yl}benzonitrile]	≤ 50
CN(C)C1CCN(c2nc(-c3ccc(C#N)cc3)c(-c3ccc4nccnc4c3)n3cncc23)CC1 [Example 103, 4-(8-(4-(dimethylamino)piperidin-1-yl)-5-(quinoxalin-6-yl)imidazo[1,5-a]pyrazin-6-yl)benzonitrile]	≤ 50
